Measurements taken from patent EP4813990A1, “COMPOUND FOR TREATING CANCER” (INNOLAKE BIOPHARMA (HANGZHOU) CO., LTD., priority 2023, dated 2025).
Several values for one entry are separate records, joined by “and”; a condition that tells them apart may be missing. Equal entries are not always repeated.

What was measured:
[1] = 4-week repeated-dose toxicity test in cynomolgus monkeys; format: in vivo
Source text: In accordance with the relevant requirements of the Good Laboratory Practice for Non-clinical Drug Studies issued by the National Medical Products Administration of the People's Republic of China, and following the test protocol and revisions, the safety pharmacology test, single-dose toxicity, genetic toxicity, etc. of ILB-2109 were explored.
40 cynomolgus monkeys (half male and half female) were randomly divided into 4 groups with 5 animals per gender in each group, and given intragastric administration of 0 (vehicle), 20, 60 and 200 mg/kg/day ILB-2109 once a day for 28 consecutive days. […] Combined with gross observation and histopathological examination results, the cause of animal death was considered to be related to lung injury. […] All the above changes completely recovered during the recovery period. In addition, no drug-related changes were found in body temperature, respiration, electrocardiogram, ophthalmic examination and bone marrow. There was no gender difference in systemic exposure in each dose group; no obvious accumulation; the increase ratio of systemic exposure was lower than the increase ratio of dose.
Attention should be paid to the potential impact of ILB-2109 on respiratory system, blood system, endocrine system and other systems in clinical use.

[2] = tested on: CYP3A, CYP2B6, CYP2C8, CYP2C9, CYP1A2, CYP2C19 and CYP2D6; assay: Metabolic enzyme phenotyping for production of metabolite M4; format: in vitro ADME
[3] = tested on: MC38 mouse colon cancer xenograft; assay: MC38 mouse colon cancer xenograft model, single agent and combination with anti-CTLA-4 antibody; format: in vivo, C57BL/6 mice; conditions: for Tumor Volume (mm^3) (Day 9): Day 9 after inoculation; for Tumor Volume (mm^3) (Day 9) / Tumor Volume (mm^3) / Tumor Volume (mm^3) (Day 15) / Tumor Weight / Tumor Volume (mm^3) (Day 12): Mean ± SEM; for Tumor Volume (mm^3) (Day 9) / Tumor Volume (mm^3) / Tumor Volume (mm^3) (Day 15) / Number of Animals with Tumor Volume > 250mm^3 / T/C (%) (Day 21) / Tumor Volume (mm^3) (Day 12) / TGI (%) (Day 21): n=8; for Tumor Volume (mm^3) (Day 15): Day 15 after inoculation; for Number of Animals with Tumor Volume > 250mm^3 / T/C (%) (Day 21) / TGI (%) (Day 21): Day 21; for Tumor Weight: end of experiment (D23); for Tumor Volume (mm^3) (Day 12): head prints Day 12; for TGI (%) (Day 21): tumor volume based; for TGITW (%): tumor weight based
Experimental: A total of 6 groups were set up in the experiment: vehicle control group, ILB-2109 low-dose and high-dose single-agent groups, Anti-CTLA-4 antibody single-agent group, and two dose groups of ILB-2109 and Anti-CTLA-4 in combination. Table 1. Experimental Administration Dosage and Grouping
Anti-CTLA-4 antibody was aseptically diluted to 0.5 mg/mL with DPBS and prepared immediately before administration.
ILB-2109 was formulated to 10 mg/mL with vehicle, 1% tween80 + 9% PEG400 + 90% ddwater. Specific preparation method: Prepare Vehicle 1 (10 mL Tween80, 90 mL PEG400, 900 mL ddwater), weigh 1120 mg of ILB-2109 and add into 112 mL of Vehicle 1, grind to basically uniform, then ultrasonicate for about 2-3 minutes to obtain a homogeneous suspension. An appropriate amount of the solution was diluted to 5 mg/mL with Vehicle 1 (1% Tween80 + 9% PEG400 + 90% ddwater) at a ratio of 1:1. The prepared solution was aliquoted into 5 mL EP tubes with 4 mL per tube and stored at 4°C. Prepared once a week.
48 female C57BL/6 mice were inoculated subaxillarily with 0.1 mL DPBS containing 2×10^5 MC38 cells. On the day of inoculation, mice were randomly divided into vehicle control group, ILB-2109 low-dose group and ILB-2109 high-dose group according to body weight, with 16 animals in each group. The day of inoculation was defined as D1. On D9 after inoculation, the average tumor volume of the vehicle control group reached about 64 mm^3. According to animal tumor volume and body weight, the original vehicle control group was divided into vehicle control group and Anti-CTLA-4 antibody single-agent group; the original ILB-2109 low-dose group was divided into ILB-2109 low-dose single-agent group and the combination group of low-dose ILB-2109 and anti-CTLA-4 antibody; the original ILB-2109 high-dose group was divided into ILB-2109 high-dose single-agent group and the combination group of high-dose ILB-2109 and Anti-CTLA-4 antibody. Administration was carried out for each group on the day of regrouping according to the set dosage.
Tumor volume was measured and body weight was weighed 3 times a week.
All animals were euthanized on D23 after inoculation, and tumor samples were collected and weighed.
Tumor volume was measured 3 times a week, and tumor growth inhibition TGITV (%) was calculated. The calculation formula of Tumor Volume (TV) is: TV = 1/2 × a × b^2 [formula] where a and b represent the major diameter and minor diameter of the tumor mass respectively. [formula]
Tumor weight of animals was measured during sample collection. The tumor growth inhibition was calculated according to the following formula: Tumor Growth Inhibition based on Tumor Weight TGITW(%) = (TWc−TWt)/TWc × 100% [formula] where TWt is the mean tumor weight of the treatment group, and TWc is the mean tumor weight of the vehicle control group.
All data were expressed as Mean ± SEM.
In this experiment, data on D21 after inoculation were used for statistical analysis by PRISM software. T test was used for comparison between two groups, and one-way ANOVA was used for comparison among three or more groups.

Caco-2 cells = assay: Caco-2 permeability; format: in vitro ADME
[4] = Excretion of total radioactivity in intact rats; format: in vivo
Experimental: Excretion mainly occurred within 48 hours after administration, accounting for about 88.01% of the administered dose.

[5] = In vivo metabolism in cynomolgus monkeys (plasma profile); conditions: male and female monkeys
Source text: In in vivo metabolism experiments of cynomolgus monkeys, the relative abundance of parent drug ILB-2109 in plasma samples of male and female monkeys was more than 83%, which was the main component in plasma samples. ILB-2109 was mainly metabolized via oxidation, dehydrogenation and glucuronidation in monkey plasma.

Plasma protein binding = format: in vitro ADME; conditions: one range given for CD-1 mice, Sprague-Dawley rats, Beagle dogs and cynomolgus monkeys
[6] = female, cynomolgus monkey, in vivo, 20 mg/kg
[7] = female, cynomolgus monkey, in vivo, 60 mg/kg
[8] = male, cynomolgus monkey, in vivo, 20 mg/kg
[9] = male, cynomolgus monkey, in vivo, 60 mg/kg
[10] = ILB-2109 100 mg/kg gavage twice a day
[11] = ILB-2109 50 mg/kg gavage twice a day
[12] = 0-168 hours after single oral administration

Cc1cc(-c2c(-c3ccccc3)nc(N)n3nc(CO)nc23)cc(C(F)(F)F)n1 [ILB-2109]
NOAEL at 28 days ([1]; both sexes, cynomolgus monkey, in vivo, po): 20 mg/kg
mortality ([1]; cynomolgus monkeys, high-dose group 200 mg/kg/day, death considered related to lung injury): 1 male animal in the high-dose group was found dying 2 h after administration on D3
HNSTD ([1]; cynomolgus monkeys, intragastric once a day, 28 consecutive days): 60 mg/kg
AUC(0-t) [1, 6]: 61 µg·h/mL
Cmax [1, 6]: 5010 ng/mL
AUC(0-t) [1, 7]: 149 µg·h/mL
Cmax [1, 7]: 11900 ng/mL
AUC(0-t) [1, 8]: 80.2 µg·h/mL
Cmax [1, 8]: 6580 ng/mL
AUC(0-t) [1, 9]: 206 µg·h/mL
Cmax [1, 9]: 14300 ng/mL
role of CYP2B6, CYP2C8 and CYP2C9 in production of metabolite M4 [2]: may play a secondary role
role of other isoenzymes (CYP1A2, CYP2C19 and CYP2D6) in production of metabolite M4 [2]: little or no effect
Tumor Volume (mm^3) (Day 9) ([3]; ILB-2109 50 mg/kg gavage twice a day, 50 mg/kg): 63±6 mm^3 and 63.65±6 mm^3
Tumor Volume (mm^3) (Day 9) [3, 10]: 58±4 mm^3
Tumor Volume (mm^3) ([3]; Day 11 after inoculation, ILB-2109 50 mg/kg gavage twice a day): 115±13 mm^3
Tumor Volume (mm^3) ([3]; Day 11 after inoculation, ILB-2109 100 mg/kg gavage twice a day): 78±8 mm^3
Tumor Volume (mm^3) ([3]; Day 13 after inoculation, ILB-2109 50 mg/kg gavage twice a day): 143±20 mm^3
Tumor Volume (mm^3) ([3]; Day 13 after inoculation, ILB-2109 100 mg/kg gavage twice a day): 105±11 mm^3
Tumor Volume (mm^3) (Day 15) [3, 11]: 225±34 mm^3
Tumor Volume (mm^3) (Day 15) ([3]; ILB-2109 100 mg/kg gavage twice a day, 100 mg/kg): 257±18 mm^3 and 157±18 mm^3
Tumor Volume (mm^3) ([3]; Day 17 after inoculation, ILB-2109 50 mg/kg gavage twice a day): 269±41 mm^3
Tumor Volume (mm^3) ([3]; Day 17 after inoculation, ILB-2109 100 mg/kg gavage twice a day): 207±25 mm^3
Number of Animals with Tumor Volume > 250mm^3 [3, 11]: 8/8
T/C (%) (Day 21) [3, 11]: 70.61%
Number of Animals with Tumor Volume > 250mm^3 [3, 10]: 5/8
T/C (%) (Day 21) [3, 10]: 52.76%
Tumor Volume (mm^3) ([3]; Day 21 after inoculation, ILB-2109 50 mg/kg gavage twice a day): 494±87 mm^3
Tumor Volume (mm^3) ([3]; Day 21 after inoculation, ILB-2109 100 mg/kg gavage twice a day): 369±54 mm^3
Tumor Weight [3, 11]: 1.7030 ± 0.1419 g
Tumor Weight [3, 10]: 0.6318 ± 0.1355 g
Tumor Volume (mm^3) (Day 12) [3, 11]: 494±87 mm^3
Tumor Volume (mm^3) (Day 12) [3, 10]: 369±54 mm^3
TGI (%) (Day 21) [3, 11]: 29.39%
TGI (%) (Day 21) [3, 10]: 47.24%
TGITW (%) [3, 11]: 31%
TGITW (%) [3, 10]: 38%
efflux transporter substrate (Caco-2 cells; Caco-2 cells): most likely a substrate of efflux transporters
permeability in Caco-2 cells (Caco-2 cells; according to existing classification standards): high permeability
average of total radioactivity recovery [4, 12]: 91.74%
cage washing and cleaning fluid, share of the administered dose [4, 12]: 2.75%
feces, share of the administered dose [4, 12]: 75.17%
total urinary excretion, share of the administered dose [4, 12]: 13.81%
excretion within 48 hours, share of the administered dose ([4]; within 48 hours after administration): about 88.01%
relative abundance of parent drug in plasma samples [5]: more than 83%
binding rate in plasma (Plasma protein binding): 87.3%-95.0%
